Test results taken from patent US20260022100A1, “NAV1.8 INHIBITOR” (Wuhan Humanwell Innovative Drug Research and Development …, priority 2022, published 2026).

Legend:
Nav1.8 ion channel = Nav1.8 ion channel (Homo sapiens (Human), UniProt Q9Y5Y9); test: Inhibitory activity on Nav1.8 ion channel, whole-cell patch-clamp on HEK293/Nav1.8; type: cell-based; conditions: HEK293/Nav1.8, whole-cell patch clamp, holding -80 mV, 1 μM TTX
Procedure: Reagents were purchased from Sigma (St. Louis, MO) except NaOH and KOH for acid-base titration. The final concentrations of the test compounds were all prepared on the day of the test and then dissolved in an extracellular fluid. The extracellular fluid (mM) was NaCl, 137; KCl, 4; CaCl2), 1.8; MgCl2, 1; HEPES, 10; glucose 10; and pH 7.4 (NaOH titration). All test and control compound solutions contained 1 μM TTX. The intracellular fluid (mM) was: aspartic acid, 140; magnesium chloride, 2; ethylene glycol tetraacetic acid (EGTA), 11; and N-2-hydroxyethylpiperazine-N′-2-ethanesulfonic acid (HEPES), 10. The pH was adjusted to 7.4 with cesium hydroxide.
The test compounds were dissolved in dimethylsulfoxide (DMSO) at a concentration of 9 mM. On the day of the test, the compounds were then dissolved in the extracellular fluid and prepared into the required concentration.
The cells were transferred to a perfusion chamber and perfusion was carried out using the extracellular fluid. The intracellular fluid was thawed on the day of the experiment. The electrodes were produced by pulling with PC-10 (Narishige, Japan). Whole-cell patch-clamp recording was carried out. Noise was filtered at one fifth of the sampling frequency. The intracellular fluid with ¼ length of the electrode tube was added into the electrode, and the electrode was installed on a probe. The required Protocol was set, the interface was adjusted to Membrane test, and Stage was adjusted to Bath. A positive pressure was applied in the electrode. The tip of the electrode was contacted with the cell. The three-way valve of the air extractor was adjusted to a three-way state. A negative pressure was then applied to the electrode, so that the electrode and the cell formed a high-resistance seal. Stage was adjusted to Patch, and leak was controlled within −200 pA. A negative pressure was successively applied, so that cell membranes were broken, and a current path was formed. Perfusion was carried out by opening the suction filtration device and the extracellular fluid valve. The cell current was observed, and administration was started when the cell current was stable (at least 3 sweep current curves were overlapped). Administration was performed from low concentration to high concentration. The administration time of each concentration was not less than 2 min, and when the current was stable, the concentration was changed for administration.
For administration of the test samples, perfusion was carried out using a perfusion system utilizing the self gravity. […] During the period, the CV % of all peak current amplitudes should be less than 10% to exclude up and down fluctuations of the initial current. The average of the peak current amplitudes recorded for the last 10 times during the initial recording served as the current peak of the negative control. After the initial current was stable, the test samples were dosed starting from a low concentration until the 10 recorded peak currents were again stable or the peak currents were “constant” after and before administration after continuous administration for 5 min. We defined the following two cases as “stable” or “constant”: 1) if the absolute average of the peak current for 10 consecutive scans exceeded 200 pA and the CV value was less than 10%, 2) or the average of the peak current for 10 consecutive scans was between 200 pA and 50 pA and the CV value was less than 30%. The next detection of higher concentration was then given.
The average of the peak current of the last 10 scans of each concentration was taken as the peak current for that concentration for data analysis. If the stable state was not reached within 5 min, the peak current average of the last 10 scans at that time was used for data analysis as the peak current for that concentration. At the same time, the cells were discarded and no longer used for detection of higher concentration. At least two cells were tested per concentration of the compounds. […]

[1] = system: spinal nerve-ligated rats; test: Spinal nerve ligation neuropathic pain model in rats (Von-Frey mechanical pain threshold); type: in vivo, male SD rat; conditions: SNL rats; for Mechanical pain threshold (Mean ± SD), base value before modeling: baseline before modeling
From the text: A male SD rat weighing 180-220 g was placed on an operating table in a prone position after anesthesia. An incision was made along the spinal column near the hip bone of the animal, and the fascia and muscle were separated. The L5 transverse process was carefully snapped off with a tweezer. The L5 nerve was separated with a glass needle, and the L5 nerve was ligated with 5-0 ligature. The muscle and the skin were sutured and disinfected with iodophor. After 14 days of modeling, the animals were divided into different groups, 10 animals each group. Different compounds were separately orally administered intragastrically. Mechanical pain thresholds of the animals were detected with Von-Frey fiber filaments at different time points after administration. The specific administration dose and detection time are detailed in Table 3 below.
(§1) The mechanical pain threshold detection method: The pelma of the hind limb to be tested of the test animal was continuously stimulated using the Von-Frey fiber filament to bend the fiber filament, and the foot shrinking reaction of the animal was observed. The tested animals were stimulated one by one according to the sequence of the gram number of the fiber filaments from small to large, and each gram number of the fiber filament was continuously used for stimulation for 5 times. If less than 3 positive reactions were present, the procedure described above was repeated using a larger grade of fiber filament, and if 3 or more positive reactions were present for the first time in the test, the fiber filament was the pain threshold for that animal (3 tests per animal for the average). Fiber filament gram number: 0.6, 1.0, 1.4, 2.0, 4.0, 6.0, 8.0, 10.0, and 15.0; the cut value was 15.0 g.

[2] = Pharmacokinetic assay in mice; type: in vivo; conditions: male, ICR, mouse, plasma, oral intragastric administration, 10 mg/kg
Procedure: Pharmacokinetic assay in mice was performed, wherein the mice used were 3 male ICR mice and fasted overnight. The mice were orally intragastrically dosed with the medicament (10 mg/kg). Blood was collected before administration and at 15 min, 30 min and 1 h, 2 h, 4 h, 6 h, 8 h, and 24 h after administration. Blood samples were centrifuged at 8000 rpm for 6 min at 4° C., and plasma was collected and stored at −20° C. The plasma at each time point was taken, and 3-5 times its amount of an acetonitrile solution containing an internal standard was added for mixing. The mixture was vortexed for 1 min and then centrifuged at 13000 rpm at 4° C. for 10 min. The supernatant was taken, and 3 times its amount of water was added for mixing. A proper amount of the resulting mixture was taken for LC-MS/MS analysis. The major pharmacokinetic parameters were analyzed using a non-compartmental model in the WinNonlin 7.0 software.

incision pain model rats = test: Incision pain model in rats (Von-Frey mechanical pain threshold); type: in vivo, male SD rat; conditions: for Mechanical pain threshold (Mean ± SD), base value before modeling: baseline before modeling
Procedure: A male SD rat weighing 200-250 g was fixed in a prone position after anesthesia. The lateral hind limb sole of the rat was flattened upwards, and the toes were fixed using an operation adhesive tape. Sterilization was performed. A 0.5 cm position of the plantar heel of the animal was incised with a scalpel towards the toe end to incise the fascia and the skin to make a longitudinal incision of about 1 cm. After the flexor digitorum brevis was lifted by the surgical forceps, the abdomen of the muscle was longitudinally incised with a scalpel without completely cutting off the muscle. The skin was sutured and disinfected. On the second day of modeling, the animals were divided into different groups, 8 animals each group. Different compounds were separately orally administered intragastrically. Mechanical pain thresholds of the animals were detected with Von-Frey fiber filaments at different time points after administration. The specific grouping administration dose and detection time are detailed in Table 4 below.
as §1

O=C(Nc1cnc[n+]([O-])c1)c1cc(Cl)c(Cl)cc1Oc1ccc(OC(F)(F)F)cc1 [Compound I-1, 5-(4,5-Dichloro-2-(4-(trifluoromethoxy)phenoxy)benzamido)pyrimidine 1-oxide]
IC50 (Nav1.8 ion channel): 14 nM
Mechanical pain threshold (Mean ± SD), base value before modeling ([1]; 100 mpk group): 13.6 ± 1.7 g
Mechanical pain threshold (Mean ± SD), 1 h after administration ([1]; 100 mpk oral intragastric): 11.0 ± 4.0 g
Mechanical pain threshold (Mean ± SD), 3 h after administration ([1]; 100 mpk oral intragastric): 11.1 ± 3.7 g
AUC(0-t) [2]: 17300 ng·h/mL
Cmax [2]: 7370 ng/mL
Tmax [2]: 0.25 h
half-life [2]: 2.74 h
Mechanical pain threshold (Mean ± SD), base value before modeling (incision pain model rats; 100 mpk group): 12.6 ± 1.7 g
Mechanical pain threshold (Mean ± SD), 1 h after administration (incision pain model rats; 100 mpk oral intragastric): 12.5 ± 1.9 g
Mechanical pain threshold (Mean ± SD), 3 h after administration (incision pain model rats; 100 mpk oral intragastric): 11.4 ± 2.0 g
Mechanical pain threshold (Mean ± SD), 6 h after administration (incision pain model rats; 100 mpk oral intragastric): 8.4 ± 1.2 g

CC(C)C[C@H](CN)CC(=O)O [Pregabalin, reference compound]
Mechanical pain threshold (Mean ± SD), base value before modeling ([1]; 30 mpk group): 13.6 ± 2.7 g
Mechanical pain threshold (Mean ± SD), 1 h after administration ([1]; 30 mpk oral intragastric): 13.8 ± 2.3 g
Mechanical pain threshold (Mean ± SD), 3 h after administration ([1]; 30 mpk oral intragastric): 12.3 ± 2.9 g
Mechanical pain threshold (Mean ± SD), 6 h after administration ([1]; 30 mpk oral intragastric, 6 h): 12.1 ± 2.3 g
Mechanical pain threshold (Mean ± SD), base value before modeling (incision pain model rats; 30 mpk group): 12.7 ± 1.7 g
Mechanical pain threshold (Mean ± SD), 1 h after administration (incision pain model rats; 30 mpk oral intragastric): 12.4 ± 1.9 g
Mechanical pain threshold (Mean ± SD), 3 h after administration (incision pain model rats; 30 mpk oral intragastric): 11.6 ± 1.1 g
Mechanical pain threshold (Mean ± SD), 6 h after administration (incision pain model rats; 30 mpk oral intragastric): 11.3 ± 1.4 g
